These results are taken from patent publication US20050215604A1, “Combination therapies with epothilones and carboplatin” (Kosan Biosciences, Inc., priority 2004, published 2005).

One series concerns H226. Briefly: MTS cell viability assay, single agents. The class given is cell-based. The note with it: Homo sapiens, NCI-H226, 72 h, read-out: IC50 (concentration of drug required to inhibit cell growth by 50%). How it is done:
(§1) The human NSCLC (non-small cell lung cancer) cell lines A549, H23, H226, H358, H460, and H522 were seeded in 96 well plates (5000 cells/well); after overnight incubation, the cells were treated with epothilone D or carboplatin alone or epothilone D and carboplatin in combination. Once the IC50 value of each drug was obtained, the combined drug treatment was designed at constant ratios of the two drugs and the treatment schedule varied: either epothilone D or carboplatin was administered first with the second drug added 24 hours later. Cell viability was assayed by the MTS assay. […] Cells were treated with epothilone D or carboplatin at varying concentrations, ranging from 1 pM to 10 μM, for 3 days. Cell viability was determined using the using the MTS assay (Promega). IC50 is defined as the concentration of drug required to inhibit cell growth by 50%.
(Tetrazolium assays rely on reduction of a dye to a coloured formazan, in cell work by metabolically active cells.)

For a further series, the system named is H460. The series can be described thus: MTS cell viability assay, single agents. The class given is cell-based. The note with it: Homo sapiens, NCI-H460, 72 h, read-out: IC50 (concentration of drug required to inhibit cell growth by 50%). How it is done:
as §1

Another series relates to H522. Briefly: MTS cell viability assay, single agents. The format is cell-based. The note with it: Homo sapiens, NCI-H522, 72 h, read-out: IC50 (concentration of drug required to inhibit cell growth by 50%). On the procedure: as §1
For another series, the system named is H23. Briefly: MTS cell viability assay, single agents. The class given is cell-based. The note with it: Homo sapiens, NCI-H23, 72 h, read-out: IC50 (concentration of drug required to inhibit cell growth by 50%). On the procedure:
as §1

Another series has as its system A549. Briefly: MTS cell viability assay, single agents. Conditions: Homo sapiens, A549, 72 h, read-out: IC50 (concentration of drug required to inhibit cell growth by 50%). The format is cell-based. On the procedure: as §1
For another series, the system named is H358. Briefly: MTS cell viability assay, single agents. The note with it: Homo sapiens, NCI-H358, 72 h, read-out: IC50 (concentration of drug required to inhibit cell growth by 50%). The format is cell-based. On the procedure: as §1
In series [1] the test system is human NSCLC cell lines A549, H23, H226, H358, H460, and H522. Briefly: MTS cell viability assay across the NSCLC panel, single agents and constant-ratio combination. The format is cell-based. The note with it: single agent, 1 pM to 10 μM, 3 days; carboplatin judged at 10,000 nM. On the procedure: as §1
Series [2] relates to human lung cancer xenograft MV522. The series can be described thus: Human lung cancer xenograft in nude mice. Conditions: ip, epothilone D twice a day for 7 days (6 to 14 mg/kg/day), carboplatin daily for 5 days (10 to 40 mg/kg/day), dose dependent. The class given is in vivo. On the procedure: (§2) The drug combination was also tested in nude mice bearing the human lung cancer xenografts MV522 and SK-MES. Fragments of human tumor carcinomas harvested from subcutaneously growing tumors in nude mice hosts were implanted subcutaneously. When tumors were approximately 60-75 mg in size (10-14 days after implantation), mice were pair matched into treatment and control groups. Epothilone D was given intraperito-neally twice a day for 7 days (6 to 14 mg/kg/day), carboplatin intraperitoneally every daily for 5 days (10 to 40 mg/kg/day), various combinations of epothilone D (first) and carboplatin (second), or vehicle control.
On the technique in general: Xenograft models place foreign cells or tissue in a host animal.

Series [3] concerns human lung cancer xenograft SK-MES. The series can be described thus: Human lung cancer xenograft in nude mice. The note with it: ip, epothilone D twice a day for 7 days (6 to 14 mg/kg/day), carboplatin daily for 5 days (10 to 40 mg/kg/day), dose dependent. The format is in vivo. On the procedure: as §2

With `C/C1=C/CC(/C(C)=C/c2csc(C)n2)OC(=O)C[C@H](O)C(C)(C)C(=O)[C@H](C)[C@@H](O)[C@@H](C)CCC1` (stereo partly drawn) [Epothilone D, epothilone D], the IC50 with H226 was found to be 50 nM; with H460, 33 nM; in the series with H522 it was 40 nM; in the series with H23 it was 37 nM; with A549, 40 nM; with H358, 40 nM. In addition, the “cytotoxic effects against cultured NSCLC human cancer cell lines” value in series [1] is on record as “potent cytotoxic effects”. Besides, the “antiproliferative activity (measured as tumor size), single agent” value in series [2] and in series [3] was “antiproliferative activity” throughout.

As for `[NH2][Pt]1([NH2])[O]C(=O)C2(CCC2)C(=O)[O]1` [Carboplatin, carboplatin], in series [1], the “cytotoxic effects against cultured NSCLC human cancer cell lines” value was “essentially inactive”. Moreover, the “antiproliferative activity (measured as tumor size), single agent” value in series [2] and in series [3] was “antiproliferative activity” throughout.
